Patent US4063015A, “Garamine and derivatives thereof” (Schering Corporation, priority 1975, dated 1977)
≈ marks a conversion by molar mass, not a printed value. Read-outs that look alike come from different tables or passages of the source.

What was measured:
Bacillus subtilis = test: Minimal Inhibitory Concentration (MIC), Table I; assay type: cell-based
Text: (§1) In general, the novel pseudotrisaccharides of this invention (I) can be used to treat diverse types of susceptible microbial, viral, helmintic and protozoal infestations. These anthelmintic, antiprotozoal, antimicrobial and antiviral activities can readily be determined by standard in vivo and in vitro tests well known to the microbiologist and virologist. Of the compounds of this invention it can generally be stated that those 6'--NH2 or 6'--NHR4 compounds having a 2'--OH group are preferred for their activity against bacteria, trichomonas, amoeba, and helminths; those 2'--HN2 or 2'--NHR4 compounds having a 6'--OH group are preferred for their activity against bacteria, trichomona, amoeba, and helminths; those 2'--NH2 or 2'--NHR4 compounds having a 6'--NH2 or a 6'--NHR4 group are preferred for their antibacterial activity while those 2'--OH or 6'--OH compounds are preferred for their antitrichomonal activity.
(§2) Typical activity is illustrated by the following tables showing antibacterial and antiprotozoal activities.
(§3) Minimal Inhibitory Concentration (MIC) (mcg/ml)

[1] = tested on: Escherichia coli (G resistant); test: Minimal Inhibitory Concentration (MIC), Table I; assay type: cell-based; settings: garamycin resistant
Text: as §1, §2, §3

[2] = tested on: Escherichia coli (N,K resistant); test: Minimal Inhibitory Concentration (MIC), Table I; assay type: cell-based; settings: neomycin, kanamycin resistant
Text: as §1, §2, §3

[3] = tested on: Escherichia coli (T resistant); test: Minimal Inhibitory Concentration (MIC), Table I; assay type: cell-based; settings: tobramycin resistant
Text: as §1, §2, §3

Escherichia coli = test: Minimal Inhibitory Concentration (MIC), Table I; assay type: cell-based
Text: as §1, §2, §3

[4] = tested on: Klebsiella pneumoniae (G-resistant); test: Minimal Inhibitory Concentration (MIC), Table I; assay type: cell-based; settings: garamycin resistant
Text: as §1, §2, §3

[5] = tested on: Klebsiella pneumoniae (N,M resistant); test: Minimal Inhibitory Concentration (MIC), Table I; assay type: cell-based
Text: as §1, §2, §3

Proteus mirabilis = test: Minimal Inhibitory Concentration (MIC), Table I; assay type: cell-based
Text: as §1, §2, §3

Providence = test: Minimal Inhibitory Concentration (MIC), Table I; assay type: cell-based
Text: as §1, §2, §3

[6] = tested on: Pseudomonas aeruginosa (G resistant); test: Minimal Inhibitory Concentration (MIC), Table I; assay type: cell-based; settings: garamycin resistant
Text: as §1, §2, §3

Serratia marcessans = test: Minimal Inhibitory Concentration (MIC), Table I; assay type: cell-based
Text: as §1, §2, §3

Staphylococcus aureus = test: Minimal Inhibitory Concentration (MIC), Table I; assay type: cell-based
Text: as §1, §2, §3

Streptococcus pyogenes C = test: Minimal Inhibitory Concentration (MIC), Table I; assay type: cell-based
Text: as §1, §2, §3

Trichomonas Vaginalis = test: In vitro Activity Against Trichomonas Vaginalis, Table II; assay type: cell-based; settings: for IC99: read-out: Minimal 99% suppression level; for MBC: read-out: Minimal Cidal Level
Text: as §1, §2
In vitro Activity Against Trichomonas Vaginalis
STS - Simplified Tripticase Serum Medium, Baltimore Biological
Laboratories, Baltimore, Maryland.

Salmonella typhimurium = test: Minimal Inhibitory Concentration (MIC), Table I; assay type: cell-based; settings: Salmonella enterica
Text: as §1, §2, §3

Pseudomonas aeruginosa = test: Minimal Inhibitory Concentration (MIC), Table I; assay type: cell-based
Text: as §1, §2, §3

pKa of garamine = assay type: physicochemical
Experimental: i. 1,3,3'-Tri-N-carbobenzoxygaramine (2.02 g.) was dissolved in methanol (100 ml.), and 10% palladium on carbon (1.0 g.) was added. The mixture was hydrogenated at 25° at 50 lbs/sq. in. for 16 hours, and the catalyst was filtered off, and washed with methanol. The filtrate was evaporated, and chromatographed on silica gel using the lower phase of a chloroform-methanol-concentrated ammonium hydroxide (2:1:1) system as the eluent. The fractions containing the garamine were concentrated in vacuo to small volume, and were then passed through Amberlite IR45 resin. The eluate was concentrated to small volume in vacuo, and the resulting solution was lyophilized to give garamine (750 mg.) (84%) as a colorless amorphous solid, m.p. 89°-99°, (Found: C, 48.31; H, 8.54; N, 12.87. C13 H27 N3 O6 requires: C, 48.60; H, 8.41; N, 13.08%), m/e 322 (M^+ +1), [α]D^26 + 135.4° (H2 O), pKa 8.5, .nu. max (nujol) 3300, 1060 cm.^-1, δ (D 2 O) 1.19 (3H, s, 4'--CH3), 2.51 (3H, s, 3'--NCH3), 2.57 (1H, d, J2',3' =10.5 Hz, H3'), 3.30 )1H, d, J5'a,5'e =12.5 Hz, H5'a), 3.79 (1H, dd, J2',3' =10.5 Hz, J1',2' =4 Hz, H2'), 4.03 (1H, d, J5'a,5'e =12.5 Hz, H5'e), 5.06 ppm. (1H, d, J1',2' =4 Hz, H1').

Row | Compound | MIC (Bacillus subtilis) [µg/mL] | MIC [1] [µg/mL] | MIC [2] [µg/mL] | MIC [3] [µg/mL] | MIC (Escherichia coli) [µg/mL] | MIC [4] [µg/mL] | MIC [5] [µg/mL] | MIC (Proteus mirabilis) [µg/mL] | MIC (Providence) [µg/mL] | MIC [6] [µg/mL] | MIC (Serratia marcessans) [µg/mL] | MIC (Staphylococcus aureus) [µg/mL] | MIC (Streptococcus pyogenes C) [µg/mL] | IC99 (Trichomonas Vaginalis; 24 hr.) [µg/mL] | MBC (Trichomonas Vaginalis; 24 hr.) [µg/mL] | IC99 (Trichomonas Vaginalis; 48 hr.) [µg/mL] | MBC (Trichomonas Vaginalis; 48 hr.) [µg/mL] | MIC (Salmonella typhimurium) [µg/mL] | MIC (Pseudomonas aeruginosa) [µg/mL] | pKa (pKa of garamine)
1 | CN[C@@H]1[C@@H](O)[C@@H](O[C@@H]2[C@@H](O)[C@H](O[C@H]3O[C@H](CO)[C@@H](O)[C@H](O)[C@H]3N)[C@@H](N)C[C@H]2N)OC[C@]1(C)O (stereo in doubt) [Gentamicin X2] | 0.08 (≈ 0.166 µM) | > 25 | > 25 | > 25 | 0.8 to 3 (≈ 1.66 to 6.22 µM) | > 25 | > 25 | 3 (≈ 6.22 µM) | > 25 | > 25 | > 25 | 0.3 to 7.5 (≈ 0.622 to 15.5 µM) | 1 to 17.5 (≈ 2.07 to 36.3 µM) | 10 | 10 (≈ 20.7 µM) | < 10 | 10 (≈ 20.7 µM) |  |  | 
2 | CCN[C@H]1[C@@H](O[C@H]2[C@H](O)[C@@H](O[C@H]3OC[C@](C)(O)[C@H](NC)[C@H]3O)[C@H](N)C[C@@H]2N)O[C@H](CO)[C@@H](O)[C@@H]1O [2'-N-Ethylgentamicin X2] | 3 (≈ 5.88 µM) |  | > 25 | > 25 |  | > 25 | > 25 | > 25 | > 25 | > 25 | > 25 | 3 to 7.5 (≈ 5.88 to 14.7 µM) |  | < 10 | 10 (≈ 19.6 µM) | < 2.5 | 2.5 (≈ 4.9 µM) | 3 (≈ 5.88 µM) |  | 
3 | CCN[C@@H]1C[C@H](O)[C@@H](CO)O[C@@H]1O[C@H]1[C@H](O)[C@@H](O[C@H]2OC[C@](C)(O)[C@H](NC)[C@H]2O)[C@H](N)C[C@@H]1N [3'-Deoxy-2'-N-ethylgentamicin X2] | > 25 | > 25 | 17.5 (≈ 35.4 µM) | 3 (≈ 6.07 µM) |  | > 25 | 3 to 7.5 (≈ 6.07 to 15.2 µM) | > 25 | > 25 | > 25 | 3 (≈ 6.07 µM) |  | > 25 | < 2.5 | < 2.5 | < 2.5 | < 2.5 |  |  | 
4 | CNC[C@H]1O[C@H](O[C@H]2[C@H](O)[C@@H](O[C@H]3OC[C@](C)(O)[C@H](NC)[C@H]3O)[C@H](N)C[C@@H]2N)[C@H](O)C[C@@H]1O [3'-Deoxy-6'-N-methylgentamicin B] | < 0.1 |  | 0.75 to 17.5 (≈ 1.56 to 36.4 µM) | > 25 | 0.1 to 0.75 (≈ 0.208 to 1.56 µM) | > 25 | 0.3 to 0.75 (≈ 0.624 to 1.56 µM) | 0.75 to 3 (≈ 1.56 to 6.24 µM) | 3 (≈ 6.24 µM) |  | 3 (≈ 6.24 µM) | 0.1 to 0.3 (≈ 0.208 to 0.624 µM) | 0.1 to 17.5 (≈ 0.208 to 36.4 µM) |  |  |  |  |  | 0.1 to 3 (≈ 0.208 to 6.24 µM) | 
5 | CN[C@@H]1[C@@H](O)[C@@H](O[C@@H]2[C@@H](O)[C@H](O[C@H]3O[C@H](CO)[C@@H](O)C[C@H]3N)[C@@H](N)C[C@H]2N)OC[C@]1(C)O [3'-Deoxygentamicin X2] | 0.03 (≈ 0.0643 µM) | > 25 | 3 to 7.5 (≈ 6.43 to 16.1 µM) | 17.5 (≈ 37.5 µM) | 3 to 7.5 (≈ 6.43 to 16.1 µM) | > 25 | 0.8 to 3 (≈ 1.71 to 6.43 µM) | 7.5 (≈ 16.1 µM) | > 25 | > 25 | 0.8 (≈ 1.71 µM) | 0.5 to 7.5 (≈ 1.07 to 16.1 µM) |  | 10 | 10 (≈ 21.4 µM) | < 10 | 10 (≈ 21.4 µM) | 7.5 (≈ 16.1 µM) | 3 to 7.5 (≈ 6.43 to 16.1 µM) | 
6 | CN[C@@H]1[C@@H](O)[C@@H](O[C@@H]2[C@@H](O)[C@H](O[C@H]3O[C@H](CN)[C@@H](O)C[C@H]3N)[C@@H](N)C[C@H]2N)OC[C@]1(C)O [3'-deoxy-JI-20A, O-2,6-Diamino-2,3,6-trideoxy-α-D-glucopyranosyl-(1→4)-garamine] | < 0.05 | > 25 | 0.08 to 0.8 (≈ 0.172 to 1.72 µM) | 17.5 (≈ 37.6 µM) | 0.08 (≈ 0.172 µM) |  | 0.08 (≈ 0.172 µM) | 0.3 (≈ 0.644 µM) | > 25 | > 25 | 3 (≈ 6.44 µM) | 0.08 to 0.3 (≈ 0.172 to 0.644 µM) | 0.8 to 7.5 (≈ 1.72 to 16.1 µM) |  |  |  |  | 0.75 (≈ 1.61 µM) | 0.08 to 0.8 (≈ 0.172 to 1.72 µM) | 
7 | CN[C@@H]1[C@@H](O)[C@@H](O[C@@H]2[C@@H](O)[C@H](O)[C@@H](N)C[C@H]2N)OC[C@]1(C)O [Garamine, 0-3-deoxy-4-C-methyl-3-(methylamino)-β-L-arabinopyranosyl-(1→6)-2-deoxy-D-streptamine] |  |  |  |  |  |  |  |  |  |  |  |  |  |  |  |  |  |  |  | 8.5
8 | CN[C@@H]1[C@@H](O)[C@@H](O[C@@H]2[C@@H](O)[C@H](O[C@H]3O[C@H](CN)[C@@H](O)[C@H](O)[C@H]3N)[C@@H](N)C[C@H]2N)OC[C@]1(C)O [JI-20A] | < 0.05 | > 25 |  | > 25 | 0.3 (≈ 0.623 µM) | > 25 | > 25 | 7.5 (≈ 15.6 µM) | > 25 | > 25 | > 25 | 0.3 (≈ 0.623 µM) | 17.5 (≈ 36.3 µM) |  |  |  |  | 0.3 (≈ 0.623 µM) | 7.5 to 17.5 (≈ 15.6 to 36.3 µM) | 
9 | CN[C@@H]1[C@@H](O)[C@@H](O[C@@H]2[C@@H](O)[C@H](O[C@H]3O[C@H](CO)[C@@H](O)[C@H](O)[C@H]3O)[C@@H](N)C[C@H]2N)OC[C@]1(C)O [O-α-D-Glucopyranosyl-(1→4)-garamine] |  |  |  |  |  |  |  |  |  |  |  |  |  | 10 | 25 (≈ 51.7 µM) | < 10 | 10 (≈ 20.7 µM) |  |  | 
